The target of one test is PRMT5-MTA (Homo sapiens, UniProt O14744). Briefly: Enzymatic inhibitory activity against PRMT5-MTA (AlphaScreen). The test is classed as biochemical. The method in brief: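 PRMT5/[…] (1 nM) was preincubated for 30 min at room temperature with 1 µM […] and 2.5 µM SAM, then exposed to compound (10-point, 3-fold from 1000 nM) for 15 min at 23 °C. Histone H4 substrate (5 nM) was added and reacted for 45 min at 23 °C. Symmetric dimethyl-R3 H4 was detected by AlphaScreen and IC50 calculated.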
Chain of PRMT5-MTA (O14744 whole entry): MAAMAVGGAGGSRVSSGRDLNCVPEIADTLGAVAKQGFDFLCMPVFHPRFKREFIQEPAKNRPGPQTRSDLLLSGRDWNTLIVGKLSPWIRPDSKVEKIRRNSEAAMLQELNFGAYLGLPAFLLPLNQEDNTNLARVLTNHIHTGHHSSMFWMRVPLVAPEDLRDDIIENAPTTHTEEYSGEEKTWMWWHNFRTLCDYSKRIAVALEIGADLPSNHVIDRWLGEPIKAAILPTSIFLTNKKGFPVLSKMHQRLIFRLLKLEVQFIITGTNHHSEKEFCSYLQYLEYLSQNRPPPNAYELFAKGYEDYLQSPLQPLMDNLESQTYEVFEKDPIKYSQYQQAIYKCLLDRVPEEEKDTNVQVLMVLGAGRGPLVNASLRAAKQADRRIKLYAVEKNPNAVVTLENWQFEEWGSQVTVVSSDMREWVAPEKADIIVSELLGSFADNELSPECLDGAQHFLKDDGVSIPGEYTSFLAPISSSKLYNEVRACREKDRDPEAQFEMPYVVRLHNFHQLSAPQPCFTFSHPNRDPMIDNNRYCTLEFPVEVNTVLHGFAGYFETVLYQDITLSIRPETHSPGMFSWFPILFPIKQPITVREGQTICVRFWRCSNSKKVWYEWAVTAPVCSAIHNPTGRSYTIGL
Chain of PRMT5-MTA (Q9BQA1 whole entry partner): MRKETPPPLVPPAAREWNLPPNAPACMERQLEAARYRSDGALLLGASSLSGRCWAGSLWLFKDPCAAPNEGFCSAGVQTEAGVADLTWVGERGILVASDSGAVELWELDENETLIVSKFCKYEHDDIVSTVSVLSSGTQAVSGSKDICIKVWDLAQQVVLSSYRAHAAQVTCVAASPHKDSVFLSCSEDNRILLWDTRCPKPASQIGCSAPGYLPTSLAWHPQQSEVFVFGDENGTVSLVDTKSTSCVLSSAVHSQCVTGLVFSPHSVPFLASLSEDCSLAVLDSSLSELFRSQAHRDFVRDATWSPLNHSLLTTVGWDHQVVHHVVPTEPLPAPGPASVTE
A general note: In Alpha technology, singlet oxygen from a donor bead excites a nearby acceptor bead.

A further test concerns HCT116 MTAP KO cells. The test is described as follows: Inhibitory activity against cell proliferation (CellTiter Glo, 6 days), HCT116 MTAP KO. The class given is cell-based. To be noted: for IC50: Homo sapiens, HCT-116, 144 h, HCT116 MTAP KO cells, 6 days, CellTiter Glo, read-out: HCT116 MTAP KO IC50; for Selectivity HCT 116-WT/ HCT116 MTAP KO: ratio of IC50 HCT116-WT / HCT116 MTAP KO. In short, it runs like this:
(§1)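 Following overnight attachment of 250 cells per well in McCoy's 5A medium with 10% FBS, compounds spanning 8 concentrations (4-fold, top 10000 nM) were applied for 6 days. Growth inhibition IC50 was derived from luminescent ATP signal.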
(In ATP-based viability assays light output follows the ATP content of the culture.)

In a further test the test system is HCT116-WT cells. The test is described as follows: Inhibitory activity against cell proliferation (CellTiter Glo, 6 days), HCT116-WT. The test is classed as cell-based. To be noted: 144 h, HCT116-WT cells, 6 days, CellTiter Glo; read-out: HCT116-WT IC50. The method in brief:
as §1

SMILES strings stand for the structures. Read-outs that look alike come from different tables or passages of the source.

Turning to `CC1CN(C(=O)c2ccc3nc(N)c4cnn(C)c4c3c2)N(c2ncccc2F)C1` (stereo not shown) [Example 367, (4-amino-1-methyl-1H-pyrazolo[4,3-c]quinolin-8-yl)(2-(3-fluoropyridin-2-yl)-4-methylpyrazolidin-1-yl)methanone], the half-inhibitory concentration (IC50) (in general, the point on the concentration scale where inhibition reaches its midpoint) was determined as 0.0041 µM on PRMT5-MTA (read-out: IC50), 0.106 µM with HCT116 MTAP KO cells and 5.26 µM in the test with HCT116-WT cells. Also, the “Selectivity HCT 116-WT/ HCT116 MTAP KO” value with HCT116 MTAP KO cells is reported as 49.62.
On the same counts, the results for `[2H]C([2H])([2H])N(c1nccc2nccnc12)N(Cc1ccc(Br)cn1)C(=O)c1ccc2nc(N)c(C)cc2c1` [Example 63, 2-amino-N-((5-bromopyridin-2-yl)methyl)-3-methyl-N'-(methyl-d3)-N'-(pyrido[3,4-b]pyrazin-5-yl)quinoline-6-carbohydrazide] are 0.0032 µM, 0.053 µM, 1.01 µM and 19.02.
On the same counts, the results for `CN(c1ncccn1)N(Cc1ccc(-c2cnn(C(F)(F)F)c2)cn1)C(=O)c1ccc2nc(N)c(CO)cc2c1` [Example 322, 2-amino-3-(hydroxymethyl)-N'-methyl-N '-(pyrimidin-2-yl)-N-((5-(1-(trifluoromethyl)-1H-pyrazol-4-yl)pyridin-2-yl)methyl) quinoline-6-carbohydrazide] are 0.0044 µM, 0.268 µM, 4.37 µM and 16.31.
On the same counts, the results for `Cc1cc2nc(N)c3cnn(C)c3c2cc1C(=O)N1CCCN1c1ncc(-c2cncs2)cc1F` [Example 474, (4-amino-1,7-dimethyl-1H-pyrazolo[4,3-c]quinolin-8-yl)(2-(3-fluoro-5-(thiazol-5-yl)pyridin-2-yl)pyrazolidin-1-yl)methanone] are 0.007 µM, 0.028 µM, 0.929 µM and 33.18.
`Cc1cc2nc(N)c3cnn(C)c3c2cc1C(=O)N1CC(C)CN1c1ncc(-c2scnc2C)cc1F` (stereo not shown) [Example 475, (4-amino-1,7-dimethyl-1H-pyrazolo[4,3-c]quinolin-8-yl)(2-(3-fluoro-5-(4-methylthiazol-5-yl)pyridin-2-yl)-4-methylpyrazolidin-1-yl)methanone]: the IC50 on PRMT5-MTA (read-out: IC50) was determined as 0.0051 µM; in the test with HCT116 MTAP KO cells, 0.063 µM; in the test on HCT116-WT cells, 2.76 µM. In addition, the “Selectivity HCT 116-WT/ HCT116 MTAP KO” value with HCT116 MTAP KO cells is reported as 43.81.
On the same counts, the results for `Cc1ccc(-c2ccc(CN(C(=O)c3ccc4nc(N)c(C)cc4c3)N(C)c3ncccn3)nc2)cn1` [Example 160, 2-amino-N',3-dimethyl-N-((6'-methyl-[3, 3'-bipyridine]-6-yl)methyl)-N'-(pyrimidin-2-yl)quinoline-6-carbohydrazide] are 0.002 µM, 0.027 µM, 0.58 µM and 21.48.
With `Cn1ncc2c(N)nc3cc(Cl)c(C(=O)N4CC(F)(F)CN4c4cccc(F)n4)cc3c21` [Example 462, (4-amino-7-chloro-1-methyl-1H-pyrazolo [4,3-c]quinolin-8-yl)(4,4-difluoro-2-(6-fluoropyridin-2-yl)pyrazolidin-1-yl)methanone], the IC50 on PRMT5-MTA (read-out: IC50) was determined as 0.006 µM; in the test with HCT116 MTAP KO cells it was 0.03 µM; in the test with HCT116-WT cells it was 0.484 µM. Further, the “Selectivity HCT 116-WT/ HCT116 MTAP KO” value with HCT116 MTAP KO cells turned out to be 16.13.
On the same counts, the results for `Cc1cc2nc(N)c3cnn(C)c3c2cc1C(=O)N1CC(C)CN1c1cc(F)ccn1` (stereo not shown) [Example 372, (4-amino-1,7-dimethyl-1H-pyrazolo[4,3-c]quinolin-8-yl)(2-(4-fluoropyridin-2-yl)-4-methylpyrazolidin-1-yl)methanone] are 0.0034 µM, 0.083 µM, 2.52 µM and 30.42.
On the same counts, the results for `Cc1cnc(N2CC(C)CN2C(=O)c2cc3c(cc2C)nc(N)c2cnn(C)c23)c(F)c1` (stereo not shown) [Compound 490, (4-amino-1,7-dimethyl-1H-pyrazolo[4,3-c]quinolin-8-yl)(2-(3-fluoro-5-methylpyridin-2-yl)-4-methylpyrazolidin-1-yl)metha none] are 0.0051 µM, 0.026 µM, 1.01 µM and 38.96.
On the same counts, the results for `CN(c1ncccn1)N(Cc1ccc(C(F)(F)F)cn1)C(=O)c1ccc2nc(N)c3ccncc3c2c1` [Example 78, 5-amino-N'-methyl-N'-(pyrimidin-2-yl)-N-((5-(trifluoromethyl)pyridin-2-yl)methyl)benzo[c][2,6]naphthyridine-9-carbohydrazide] are 0.002 µM, 0.014 µM, 0.169 µM and 12.07.
As to `Cc1cc2cc(C(=O)N(Cc3ccc(C(C)(F)F)cn3)N(C)c3ncccn3)ccc2nc1N` [Example 291, 2-amino-N-((5-(1,1-difluoroethyl)pyridin-2-yl)methyl)-N',3-dimethyl-N'-(pyrimidin-2-yl)quinoline-6-carbohydrazide], the IC50 is 0.0039 µM at PRMT5-MTA (read-out: IC50), 0.039 µM with HCT116 MTAP KO cells and 1.05 µM with HCT116-WT cells. Besides, the “Selectivity HCT 116-WT/ HCT116 MTAP KO” value with HCT116 MTAP KO cells was 26.90.
On the same counts, the results for `Cc1cc2nc(N)c3cnn(C)c3c2cc1C(=O)N1CC(F)CN1c1ncccc1F` (stereo not shown) [Example 450, (4-amino-1,7-dimethyl-1H-pyrazolo[4,3-c]quinolin-8-yl)(4-fluoro-2-(3-fluoropyridin-2-yl)pyrazolidin-1-yl)methanone] are 0.0038 µM, 0.02 µM, 1.22 µM and 61.20.
On the same counts, the results for `Cc1cc2nc(N)c3cnn(C)c3c2cc1C(=O)N1CC(C)CN1c1ncc(-c2cccnc2)cc1F` (stereo not shown) [Example 484, (4-amino-1,7-dimethyl-1H-pyrazolo[4,3-c]quinolin-8-yl)(2-(5-fluoro-[3,3'-bipyridine]-6-yl)-4-methylpyrazolidin-1-yl)metha none] are 0.0064 µM, 0.015 µM, 0.836 µM and 55.73.
On the same counts, the results for `Cc1cc2cc(C(=O)N(Cc3ccc(Br)cn3)N(C)c3ncccc3F)ccc2nc1N` [Example 48, 2-amino-N-((5-bromopyridin-2-yl)methyl)-N'-(3-fluoropyridin-2-yl)-N',3-dimethyl quinoline-6-carbohydrazide] are 0.0037 µM, 0.013 µM, 0.466 µM and 35.85.
On to `COc1cccc(N2CC(C)CN2C(=O)c2cc3c(cc2C)nc(N)c2cnn(C)c23)n1` (stereo not shown) [Example 406], for which the half-maximal inhibitory concentration (IC50) turned out to be 0.0043 µM at PRMT5-MTA, 0.023 µM with HCT116 MTAP KO cells and 0.906 µM in the test on HCT116-WT cells. Also, in the test on HCT116 MTAP KO cells, the “Selectivity HCT 116-WT/ HCT116 MTAP KO” value turned out to be 39.39.
Take `Cc1cc2cc(C(=O)N(Cc3ccc(-c4ccc(N5CCN(C)CC5)nc4)cn3)N(C)c3ncccn3)ccc2nc1N` [Example 140, 2-amino-N',3-dimethyl-N-((6'-(4-methylpiperazin-1-yl)-[3,3'-bipyridine]-6-yl)methyl)-N'-(pyrimidin-2-yl)quinoline-6-carbohydrazide]: the IC50 at PRMT5-MTA (read-out: IC50) is 0.0016 µM; in the test with HCT116 MTAP KO cells, 0.046 µM; in the test with HCT116-WT cells, 2.06 µM. Further, the “Selectivity HCT 116-WT/ HCT116 MTAP KO” value in the test with HCT116 MTAP KO cells is on record as 44.67.

The values are drawn from patent publication EP4745134A1 (Jiangsu Yahong Meditech Co., Ltd., priority 2023, dated 2025).
